Results reported in patent publication US20170368037A1, “PHARMACEUTICAL COMPOSITION FOR PROMOTION OF FIBRINOLYSIS” (Daiichi Sankyo Company, Limited, priority 2014, published 2017).

Tests used:
[1] = test system: fibrinolysis induced by tPA in human plasma; test: Fibrinolysis assay (clot lysis time induced by tPA in human plasma), Example 1; format: biochemical; conditions: tPA 180 ng/mL, edoxaban 18.8 ng/mL to 300 ng/mL, vs control
Experimental: Edoxaban was dissolved in dimethyl sulfoxide (hereinafter, also referred to as “DMSO”) (Wako Pure Chemical Industries, Ltd.) to prepare a 10 mM solution, which was then stored at −30° C. Before use, the frozen product was thawed and diluted with DMSO and saline (Otsuka Pharmaceutical Factory, Inc.) (DMSO concentration in test substance solution: 0.96%, final DMSO concentration in reaction system: 0.08%).
Hepes buffer: Hepes (Sigma-Aldrich, Co. LLC.) and NaCl (Nacalai Tesque Inc.) were dissolved at 20 mM and 140 mM, respectively, in distilled water, and the solution was adjusted to pH 7.4 using a 1 mol/L sodium hydroxide solution (Nacalai Tesque Inc.). […]
(§1) 70 μL of the human plasma sample (containing tPA), 10 μL each of varying concentrations of the edoxaban solution, and 20 μL of the PPP reagent were added to each well of a 96-well plate (Sumilon Proteosave SS 96F plate, MS-8296F). […] Absorbance at 405 nm was measured every 30 seconds using SpectraMAX 384 Plus (Molecular Devices, LLC.) prewarmed to 37° C. The time for the absorbance to return to ½ of the peak from the time to reach ½ of the peak was calculated using SoftMax Pro 5.4.1 (Molecular Devices, LLC.) and used as clot lysis time. […]
Two experiments were conducted on each of 3 lots of human plasma (n=6). […] The calculated P value was rounded off and indicated by three decimal places. […]

[2] = test system: fibrinolysis induced by tPA in human plasma; test: Fibrinolysis assay (clot lysis time in human plasma containing tPA and TM), Example 2; format: biochemical; conditions: tPA 180 ng/mL, TM 0.1 nM, vs control
Experimental: Edoxaban was dissolved in DMSO to prepare a 10 mM solution, which was then stored at −30° C. Before use, the frozen product was thawed and diluted with DMSO and saline (DMSO concentration in test substance solution: 1.92%).
PCI (Sigma-Aldrich, Co. LLC.) was dissolved in Hepes buffer to prepare a 4.8 mg/mL solution, which was then stored at −30° C. Before use, the frozen product was thawed and diluted with Hepes buffer.
Hepes buffer, tPA solution, and PPP reagent were prepared in the same way as in Example 1(2). […]
as §1, with “tPA and TM), 5” for “tPA), 10”, “solution, 5 μL of PCI,” for “solution,”, “Plus” for “Plus (Molecular Devices, LLC.)”, “decrease” for “return”, “5.4.1” for “5.4.1 (Molecular Devices, LLC.)”
Two experiments were conducted on each of 3 lots of human plasma (n=6). The basic statistics (mean, standard deviation, and standard error) of the clot lysis time were calculated, and the results were indicated by mean±standard error (SEM). […] Concentration dependence was evaluated by Spearman's rank correlation coefficient hypothesis test. […]

Row | Molecule | clot lysis time [1] | clot lysis time ([2]; edoxaban alone 150 and 300 ng/mL) | clot lysis time ([2]; PCI alone 0.3 to 3 μg/mL)
1 | CN1CCc2nc(C(=O)N[C@@H]3C[C@@H](C(=O)N(C)C)CC[C@@H]3NC(=O)C(=O)Nc3ccc(Cl)cn3)sc2C1 [Edoxaban, N-(5-chloropyridin-2-yl)-N′-[(1S,2R,4S)-4-(dimethylcarbamoyl)-2-(5-methyl-4,5,6,7-tetrahydro[1,3]thiazolo[5,4-c]pyridine-2-carboxamido)cyclohexyl]oxamide] | significantly shortened the clot lysis time in a concentration-dependent manner | significantly shortened the clot lysis time in a concentration-dependent manner | –
2 | PCI: carboxypeptidase inhibitor from potato tuber, a TAFIa inhibitor (Sigma-Aldrich) (QQHADPICNKPCKTHDDCSGAWFCQACWNSARTCGPYVG; UniProt P01075 1-39, looked up) | – | – | significantly shortened the clot lysis time in a concentration-dependent manner
